These results are taken from US20240166624A1, “PPARG INVERSE AGONISTS AND USES THEREOF” (Flare Therapeutics Inc., priority 2021, published 2024).

pEC50: −log10 of the molar value.

The subject of test [1] is ANGPTL4, a PPARG target gene, in HT1197 (RXRA S427F mutation) cells. The experiment in a line: Bladder cancer pharmacodynamic assay, HT1197 cell assay (qPCR of ANGPTL4). Particulars: Homo sapiens, 24 hours, 100 nM compound, relative to DMSO control. The format is cell-based. The procedure: Bladder Cancer Pharmacodynamic Assay
5637 (PPARG amplified) and HT1197 (RXRA S427F mutation) cells were used for assessment of modulation of PPARG target genes using quantitative PCR. Cells were treated for 24 hours with PPARG inverse agonists prior to analysis of FABP4 (IDT, Cat: Hs.PT 58.20106818) and ANGPTL4 (IDT, Cat: Hs.PT 58.25480012) expression, with expression of the housekeeping gene TBP (IDT, Cat: Hs.PT 58v.39858774) used to normalize expression across samples. Quantitative PCR was performed using an ABI QuantStudio 7 Flex Reaction system. Data were analyzed and reported relative to DMSO control using the comparative Ct method (ΔΔCt).
On the technique in general: Real-time PCR tracks product formation cycle by cycle.

Test [2] addresses T1, PPARG/RXRA LBD heterodimer (Homo sapiens, UniProt P37231).
T1 construct: His-TEV-Q203-Y477; Uniprot ID P37231-2; made in house; host or cells: E. coli
The experiment in a line: PPARγ-NCOR1 recruitment assay (TR-FRET, biotinylated NCOR1 ID2 peptide). The format is biochemical. The note with it: 80 nM Rosiglitazone, 3 hours, read-out: PPARG-NCOR recruitment assay EC50. On the procedure: PPARγ-NCOR1 Recruitment Assay:
Compound potency (EC50) and maximal extent of NCOR1 recruitment to PPARG were assessed a TR-FRET binding assay measuring association of a biotinylated NCOR1 ID2 peptide (Biotin-[…]-amide) to PPARG/RXRA LBD heterodimer. Specifically, a 20 microliters of TR-FRET master mix consisting of 2 nM WT PPARG LBD (E. coli expressed, His-TEV-Q203-Y477; Uniprot ID P37231-2), 2 nM WT RXRA LBD or mutant S427F RXRA LBD (E. coli expressed, Flag-TEV-E228-T462; […]. Mixtures were incubated for 3 hours and read in an EnVision plate reader (Perkin Elmer) with Ex/Em 615/665. To determine the potency (EC50) and extent of NCOR1 recruitment, TR-FRET ratios were normalized to the average ratio of DMSO control wells (0%) and to the average maximum ratio for positive control compound (T0070907 (2-chloro-5-nitro-N-4-pyridinyl-benzamide); defined as 100%) in CDD Vault and analyzed using the Levenberg-Marquardt algorithm.
T1 sequence (O75376 2251-2273 partner, one chain of several): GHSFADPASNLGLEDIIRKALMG

The target in test [3] is T2, PPARG/RXRA LBD heterodimer (Homo sapiens, UniProt P37231).
T2 construct: His-TEV-Q203-Y477; Uniprot ID P37231-2; made in house; host or cells: E. coli
T2 sequence (P37231 203-477 isoform P37231-2): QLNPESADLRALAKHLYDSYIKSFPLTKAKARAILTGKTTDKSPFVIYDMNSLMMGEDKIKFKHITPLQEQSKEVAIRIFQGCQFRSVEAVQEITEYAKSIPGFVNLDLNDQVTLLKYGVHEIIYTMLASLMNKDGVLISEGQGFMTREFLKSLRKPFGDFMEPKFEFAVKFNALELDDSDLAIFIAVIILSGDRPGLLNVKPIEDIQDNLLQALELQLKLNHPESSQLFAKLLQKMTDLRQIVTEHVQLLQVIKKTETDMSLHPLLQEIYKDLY
T2 sequence (P19793 228-462 partner limits assumed): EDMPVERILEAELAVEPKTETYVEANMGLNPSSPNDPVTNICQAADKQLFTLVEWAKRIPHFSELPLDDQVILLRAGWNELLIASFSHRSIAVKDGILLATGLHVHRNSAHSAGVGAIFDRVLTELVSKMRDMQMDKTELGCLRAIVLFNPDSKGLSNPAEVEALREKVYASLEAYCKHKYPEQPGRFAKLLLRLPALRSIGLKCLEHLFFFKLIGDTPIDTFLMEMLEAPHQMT
The experiment in a line: PPARγ-MED1 blockade assay (TR-FRET, biotinylated MED1 LxxLL peptide). The format is biochemical. The note with it: WT PPARG LBD/WT RXRA LBD, 80 nM Rosiglitazone, 3 hours. On the procedure:
PPARγ-MED1 Blockade Assay:
Compound potency (IC50) and maximal extent of MED1 repulsion to PPARG were assessed a TR-FRET binding assay measuring association of a biotinylated MED1 LxxLL peptide (Biotin-[…]-amide) to PPARG/RXRA LBD heterodimer. Specifically, a 20 microliters of TR-FRET master mix consisting of 2 nM WT PPARG LBD (E. coli expressed, His-TEV-Q203-Y477; Uniprot ID P37231-2), 2 nM WT RXRA LBD (E. coli expressed, Flag-TEV-E228-T462; […]. Mixtures were incubated for 3 hours and read in an EnVision plate reader (Perkin Elmer) with Ex/Em 615/665. To determine the potency (IC50) and extent of MED1 repulsion, TR-FRET ratios were normalized to the average ratio of DMSO control wells (0%) and to the average minimum ratio for positive control compound (GW9662 (2-chloro-5-nitrobenzanilide); defined as 100%) in CDD Vault and analyzed using the Levenberg-Marquardt algorithm.
Background: In TR-FRET formats the signal depends on donor and acceptor labels being close together.

As usually defined, the inhibition is the percentage by which the read-out fell short of the control. Read a low inhibition as a weak effect. A word on the pEC50: it is −log10 of the EC50, conventionally taken in molar units. In turn, `N#Cc1ccc(Cl)c(-c2cc(=O)c3c(F)c(F)c(F)cc3[nH]2)c1` [Example 17, 4-chloro-3-(5,6,7-trifluoro-4-oxo-1,4-dihydroquinolin-2-yl)benzonitrile] came in with an inhibition at 0.1 µM in test [1] of 66%. Further, the pEC50 in test [2] and in test [3] was 5.00 to 6.00 throughout.
As to `N#Cc1ccc(Cl)c(-c2cc(=O)c3c(Cl)cc(F)cc3[nH]2)c1` [Example 18, 4-chloro-3-(5-chloro-7-fluoro-4-oxo-1,4-dihydroquinolin-2-yl)benzonitrile], at 0.1 µM the inhibition in test [1] was 83%. In addition, the pEC50 in test [2] and in test [3] was 6.00 to 7.00 throughout.
Molecule `CN1CCN(c2c(F)cc3[nH]c(-c4cc(C#N)ccc4Cl)cc(=O)c3c2F)CC1` [Example 19, 4-chloro-3-(5,7-difluoro-6-(4-methylpiperazin-1-yl)-4-oxo-1,4-dihydroquinolin-2-yl)benzonitrile] yielded an inhibition at 0.1 µM in test [1] of 75%. For the same molecule, the pEC50 in test [2] and in test [3] was 5.00 to 6.00 each time.
`N#Cc1ccc(Cl)c(-c2cc(=O)c3c(F)c(N4CCN(CC(F)(F)F)CC4)c(F)cc3[nH]2)c1` [Example 20, 4-chloro-3-(5,7-difluoro-4-oxo-6-(4-(2,2,2-trifluoroethyl)piperazin-1-yl)-1,4-dihydroquinolin-2-yl)benzonitrile] registered an inhibition at 0.1 µM in test [1] of 91%. For the same molecule, the pEC50 in test [2] and in test [3] was 6.00 to 7.00 in each case.
Turning to `COc1cc(F)cc2[nH]c(-c3cc(C#N)ccc3Cl)cc(=O)c12` [Example 21, 4-chloro-3-(7-fluoro-5-methoxy-4-oxo-1,4-dihydroquinolin-2-yl)benzonitrile], testing at 0.1 µM in test [1] gave an inhibition of 87%. The pEC50 in test [2] and in test [3] was 5.00 to 6.00 in each case.
The molecule `COc1cc(F)c2c(=O)cc(-c3cc(C#N)ccc3Cl)[nH]c2c1` [Example 22, 4-chloro-3-(5-fluoro-7-methoxy-4-oxo-1,4-dihydroquinolin-2-yl)benzonitrile] returned an inhibition at 0.1 µM in test [1] of 29%. Besides, the pEC50 in test [2] and in test [3] was 6.00 to 7.00 throughout.
Regarding `N#Cc1ccc(Cl)c(-c2cc(=O)c3c(F)c(-c4ccncc4)c(F)cc3[nH]2)c1` [Example 23, 4-chloro-3-(5,7-difluoro-4-oxo-6-(pyridin-4-yl)-1,4-dihydroquinolin-2-yl)benzonitrile], the inhibition at 0.1 µM in test [1] amounted to 55%. Besides, the pEC50 in test [2] and in test [3] was 6.00 to 7.00 throughout.
`Cc1c(F)c(F)cc2[nH]c(-c3cc(C#N)ccc3Cl)cc(=O)c12` [Example 24, 4-chloro-3-(6,7-difluoro-5-methyl-4-oxo-1,4-dihydroquinolin-2-yl)benzonitrile] came in with an inhibition at 0.1 µM in test [1] of 69%. Further, the pEC50 in test [2] and in test [3] was 6.00 to 7.00 each time.
For `N#Cc1ccc(Cl)c(-c2cc(=O)c3c(F)c(-n4cccn4)c(F)cc3[nH]2)c1` [Example 25, 4-chloro-3-(5,7-difluoro-4-oxo-6-(1H-pyrazol-1-yl)-1,4-dihydroquinolin-2-yl)benzonitrile], the inhibition at 0.1 µM in test [1] was 22%. The negative-log EC50 (pEC50) in test [2] and in test [3] was 5.00 to 6.00 in each case.
In the case of `CNC(=O)c1c(F)cc2[nH]c(-c3cc(C#N)ccc3Cl)cc(=O)c2c1F` [Example 26, 2-(2-chloro-5-cyanophenyl)-5,7-difluoro-N-methyl-4-oxo-1,4-dihydroquinoline-6-carboxamide], in test [1], testing at 0.1 µM gave an inhibition of 21%. In addition, the pEC50 in test [2] is less than 5.00; in test [3], 5.00 to 6.00.
For `N#Cc1ccc(Cl)c(-c2cc(=O)c3c(F)c(N4CCCC4=O)c(F)cc3[nH]2)c1` [Example 27, 4-chloro-3-(5,7-difluoro-4-oxo-6-(2-oxopyrrolidin-1-yl)-1,4-dihydroquinolin-2-yl)benzonitrile], the inhibition at 0.1 µM in test [1] turned out to be 47%. Moreover, the pEC50 in test [2] and in test [3] was 5.00 to 6.00 each time.
`Cc1c(F)cc(F)c2c(=O)cc(-c3cc(C#N)ccc3Cl)[nH]c12` [Example 28, 4-chloro-3-(5,7-difluoro-8-methyl-4-oxo-1,4-dihydroquinolin-2-yl)benzonitrile]: the inhibition at 0.1 µM in test [1] is 0%. Also, the pEC50 in test [2] was less than 5.00; in test [3], 6.00 to 7.00.
On the same counts, the results for `N#Cc1ccc(Cl)c(-c2cc(=O)c3c(F)c(-n4ccnc4)c(F)cc3[nH]2)c1` [Example 29, 4-chloro-3-(5,7-difluoro-6-(1H-imidazol-1-yl)-4-oxo-1,4-dihydroquinolin-2-yl)benzonitrile] are 38%, 5.00 to 6.00 and 5.00 to 6.00.
On the same counts, the results for `Cc1cn(-c2c(F)cc3[nH]c(-c4cc(C#N)ccc4Cl)cc(=O)c3c2F)cn1` [Example 30, 4-chloro-3-(5,7-difluoro-6-(4-methyl-1H-imidazol-1-yl)-4-oxo-1,4-dihydroquinolin-2-yl)benzonitrile] are 39%, 6.00 to 7.00 and 6.00 to 7.00.
On the same counts, the results for `N#Cc1ccc(Cl)c(-c2cc(=O)c3ccc(Cl)cc3[nH]2)c1` [Example 31, 4-chloro-3-(7-chloro-4-oxo-1,4-dihydroquinolin-2-yl)benzonitrile] are 90%, 6.00 to 7.00 and 6.00 to 7.00.
As to `N#Cc1ccc(Cl)c(-c2cc(=O)c3c(F)c(C(F)(F)F)c(F)cc3[nH]2)c1` [Example 32, 4-chloro-3-(5,7-difluoro-4-oxo-6-(trifluoromethyl)-1,4-dihydroquinolin-2-yl)benzonitrile], the inhibition at 0.1 µM in test [1] amounted to 31%. The pEC50 in test [2] and in test [3] was 6.00 to 7.00 each time.
`COc1c(F)cc2[nH]c(-c3cc(C#N)ccc3Cl)cc(=O)c2c1F` [Example 34, 4-chloro-3-(5,7-difluoro-6-methoxy-4-oxo-1,4-dihydroquinolin-2-yl)benzonitrile] displayed an inhibition at 0.1 µM in test [1] of 79%. In addition, the pEC50 in test [2] and in test [3] was 6.00 to 7.00 each time.
On to `N#Cc1ccc(-c2c(F)cc3[nH]c(-c4cc(C#N)ccc4Cl)cc(=O)c3c2F)cc1` [Example 35, 4-chloro-3-(6-(4-cyanophenyl)-5,7-difluoro-4-oxo-1,4-dihydroquinolin-2-yl)benzonitrile], for which the inhibition at 0.1 µM in test [1] worked out at 54%. In addition, the pEC50 in test [2] and in test [3] was 6.00 to 7.00 each time.
In test [1], `N#Cc1ccc(Cl)c(-c2cc(=O)c3c(F)c(-c4ccc(C(F)F)cc4)c(F)cc3[nH]2)c1` [Example 36, 4-chloro-3-(6-(4-(difluoromethyl)phenyl)-5,7-difluoro-4-oxo-1,4-dihydroquinolin-2-yl)benzonitrile] returned an inhibition at 0.1 µM of 65%. In addition, the pEC50 in test [2] and in test [3] was 7.00 to 8.00 throughout.
As for `N#Cc1ccc(Cl)c(-c2cc(=O)c3c(F)c(-c4ccc(C(F)(F)F)nc4)c(F)cc3[nH]2)c1` [Example 37, 4-chloro-3-(5,7-difluoro-4-oxo-6-(6-(trifluoromethyl)pyridin-3-yl)-1,4-dihydroquinolin-2-yl)benzonitrile], 0.1 µM produced 87% inhibition in test [1]. In addition, the pEC50 in test [2] and in test [3] was 6.00 to 7.00 throughout.
